Assay: wn = mass fraction of the nth substance listed
Conditions: 101 kPa, Liquid; for viscosity: Capillary tube (Ostwald / Ubbelohde) method

C1COCCO1 [1,4-dioxane] + CO
Conditions	mass density, 298.15 K [kg/m3]	mass density, 303.15 K [kg/m3]	mass density, 308.15 K [kg/m3]	mass density, 313.15 K [kg/m3]	viscosity, 298.15 K [mPa·s]	viscosity, 303.15 K [mPa·s]	viscosity, 308.15 K [mPa·s]	viscosity, 313.15 K [mPa·s]
w1 = 0.1	811.2	806.4	801.7	796.9	0.55	0.511	0.473	0.432
w1 = 0.2	834.4	828.8	823.4	818.4	0.554	0.517	0.482	0.448
w1 = 0.3	852.5	847.4	842.6	838	0.565	0.527	0.489	0.452
w1 = 0.4	875.1	870.2	865.5	860.6	0.587	0.548	0.508	0.467

— the NIST ThermoML archive (doi:10.1021/je200145r)
